Experimental data: patent publication US20230416248A1, “COMPOUNDS AND USES THEREOF” (Foghorn Therapeutics Inc., priority 2020, published 2023)
Like-named read-outs stand apart in the source and are kept apart here.

What was measured:
BRM = target: T1, BRM (Homo sapiens, UniProt P51531); test: ATPase catalytic activity of BRM, ADP-Glo in vitro biochemical assay; details: for IC50: 30 nM BRM, 400 μM ATP; for Ratio* (BRG1 IC50 (μM) divided by BRM IC50 (μM)): selectivity ratio BRG1 IC50 / BRM IC50
T1 construct: made in house; host or cells: High Five insect cells
T1 sequence (P51531 whole entry): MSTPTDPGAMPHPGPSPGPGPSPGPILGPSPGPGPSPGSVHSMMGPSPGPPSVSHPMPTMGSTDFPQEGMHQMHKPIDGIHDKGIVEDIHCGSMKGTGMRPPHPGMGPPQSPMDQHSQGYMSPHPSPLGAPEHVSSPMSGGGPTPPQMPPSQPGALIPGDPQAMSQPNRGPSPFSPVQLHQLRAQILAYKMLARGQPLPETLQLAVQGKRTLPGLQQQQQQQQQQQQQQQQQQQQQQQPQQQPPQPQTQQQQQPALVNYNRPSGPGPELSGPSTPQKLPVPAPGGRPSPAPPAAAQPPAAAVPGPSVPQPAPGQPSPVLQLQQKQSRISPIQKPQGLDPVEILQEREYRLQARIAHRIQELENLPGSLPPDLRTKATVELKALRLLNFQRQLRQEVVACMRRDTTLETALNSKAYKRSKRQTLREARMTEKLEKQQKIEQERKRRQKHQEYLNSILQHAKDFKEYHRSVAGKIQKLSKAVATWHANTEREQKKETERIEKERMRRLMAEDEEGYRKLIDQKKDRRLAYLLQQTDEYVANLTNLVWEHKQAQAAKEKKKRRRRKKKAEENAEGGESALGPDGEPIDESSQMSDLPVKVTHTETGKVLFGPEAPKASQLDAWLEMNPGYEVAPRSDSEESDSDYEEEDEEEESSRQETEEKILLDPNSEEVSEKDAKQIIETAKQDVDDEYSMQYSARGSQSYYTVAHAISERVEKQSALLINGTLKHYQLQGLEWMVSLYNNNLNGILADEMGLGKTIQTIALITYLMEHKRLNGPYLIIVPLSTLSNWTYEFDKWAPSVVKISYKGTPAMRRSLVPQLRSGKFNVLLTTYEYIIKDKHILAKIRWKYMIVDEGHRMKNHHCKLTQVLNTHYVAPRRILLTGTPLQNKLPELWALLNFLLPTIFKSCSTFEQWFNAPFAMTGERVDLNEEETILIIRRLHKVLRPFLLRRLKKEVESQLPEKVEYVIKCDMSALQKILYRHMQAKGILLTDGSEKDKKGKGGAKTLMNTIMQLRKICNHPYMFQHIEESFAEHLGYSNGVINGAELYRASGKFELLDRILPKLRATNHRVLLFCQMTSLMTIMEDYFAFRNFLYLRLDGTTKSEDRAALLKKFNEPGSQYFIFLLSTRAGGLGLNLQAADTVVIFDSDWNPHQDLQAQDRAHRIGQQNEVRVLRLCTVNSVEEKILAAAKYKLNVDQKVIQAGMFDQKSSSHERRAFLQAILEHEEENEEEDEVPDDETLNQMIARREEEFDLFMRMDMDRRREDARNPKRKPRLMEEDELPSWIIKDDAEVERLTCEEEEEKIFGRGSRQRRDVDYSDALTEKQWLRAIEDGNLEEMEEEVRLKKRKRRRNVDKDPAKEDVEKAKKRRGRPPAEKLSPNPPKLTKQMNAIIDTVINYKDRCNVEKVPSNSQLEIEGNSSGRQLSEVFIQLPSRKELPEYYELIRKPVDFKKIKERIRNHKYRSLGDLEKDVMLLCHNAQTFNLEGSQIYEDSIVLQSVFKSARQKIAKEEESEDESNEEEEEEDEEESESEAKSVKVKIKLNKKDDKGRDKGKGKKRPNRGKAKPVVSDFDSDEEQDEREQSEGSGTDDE
Method in brief: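 Recombinant BRM (30 nM) hydrolysed 400 μM ATP with 20 nM salmon sperm DNA in pH 8 Tris buffer containing 20 mM MgCl2, 50 mM NaCl, 0.1% Tween-20 and 1 mM DTT, 1 h at room temperature. ADP formed was quantified by ADP-Glo luminescence.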

BRG-1 = target: T2, BRG-1 (Homo sapiens, UniProt P51532); test: ATPase catalytic activity of BRG-1, ADP-Glo in vitro biochemical assay; details: 30 nM BRG-1, 400 μM ATP, read-out: BRG1 IC50
T2 construct: made in house; host or cells: High Five insect cells
T2 sequence (P51532 whole entry): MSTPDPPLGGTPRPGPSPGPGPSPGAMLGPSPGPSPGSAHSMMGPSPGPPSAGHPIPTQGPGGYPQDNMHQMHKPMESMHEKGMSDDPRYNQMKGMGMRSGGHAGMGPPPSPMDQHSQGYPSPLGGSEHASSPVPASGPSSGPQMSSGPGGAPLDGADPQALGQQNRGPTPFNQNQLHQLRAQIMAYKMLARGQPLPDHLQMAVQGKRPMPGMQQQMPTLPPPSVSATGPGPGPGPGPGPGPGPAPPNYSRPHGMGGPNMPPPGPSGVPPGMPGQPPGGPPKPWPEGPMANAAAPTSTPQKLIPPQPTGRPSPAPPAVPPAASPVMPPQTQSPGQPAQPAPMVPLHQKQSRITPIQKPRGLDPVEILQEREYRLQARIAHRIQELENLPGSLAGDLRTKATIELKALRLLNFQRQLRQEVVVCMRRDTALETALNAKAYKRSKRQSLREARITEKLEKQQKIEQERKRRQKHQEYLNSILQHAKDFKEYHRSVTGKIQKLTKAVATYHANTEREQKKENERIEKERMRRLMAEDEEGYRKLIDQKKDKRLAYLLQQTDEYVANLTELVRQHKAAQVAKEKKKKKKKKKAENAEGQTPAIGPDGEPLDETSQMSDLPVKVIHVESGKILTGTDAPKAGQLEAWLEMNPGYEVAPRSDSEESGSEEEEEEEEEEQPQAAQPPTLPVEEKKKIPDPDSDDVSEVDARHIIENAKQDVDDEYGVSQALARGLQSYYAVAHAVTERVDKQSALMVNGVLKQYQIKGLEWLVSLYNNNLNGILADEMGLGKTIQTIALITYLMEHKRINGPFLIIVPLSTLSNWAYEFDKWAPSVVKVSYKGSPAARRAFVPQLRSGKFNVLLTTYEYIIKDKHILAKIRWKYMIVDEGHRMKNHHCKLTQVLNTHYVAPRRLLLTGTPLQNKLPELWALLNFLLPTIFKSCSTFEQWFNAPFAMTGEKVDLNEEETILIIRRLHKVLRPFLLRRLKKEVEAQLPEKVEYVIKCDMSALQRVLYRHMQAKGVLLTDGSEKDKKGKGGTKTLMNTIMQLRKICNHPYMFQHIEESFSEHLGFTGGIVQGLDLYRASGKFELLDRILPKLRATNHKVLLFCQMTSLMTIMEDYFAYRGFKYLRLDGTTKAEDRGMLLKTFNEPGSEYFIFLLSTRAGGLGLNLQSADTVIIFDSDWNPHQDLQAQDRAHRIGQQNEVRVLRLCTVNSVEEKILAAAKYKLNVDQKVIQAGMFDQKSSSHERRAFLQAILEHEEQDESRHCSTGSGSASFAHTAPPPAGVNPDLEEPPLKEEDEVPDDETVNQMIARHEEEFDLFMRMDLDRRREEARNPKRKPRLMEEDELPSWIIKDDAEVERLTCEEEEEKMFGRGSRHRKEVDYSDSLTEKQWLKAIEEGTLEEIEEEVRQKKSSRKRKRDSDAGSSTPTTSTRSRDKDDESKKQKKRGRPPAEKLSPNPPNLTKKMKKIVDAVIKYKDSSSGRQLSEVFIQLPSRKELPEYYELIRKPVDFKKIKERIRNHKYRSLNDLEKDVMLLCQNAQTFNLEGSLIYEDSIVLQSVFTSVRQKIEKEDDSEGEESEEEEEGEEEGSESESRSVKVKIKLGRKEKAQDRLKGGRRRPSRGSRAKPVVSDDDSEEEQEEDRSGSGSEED
Method in brief: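 BRG-1 ATPase activity was measured by ADP-Glo. Unconsumed ATP was depleted for 40 min at room temperature, then ADP was converted to ATP for 60 min and read as luminescence.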

[1] = ATPase catalytic activity, ADP-Glo

Compound	IC50 (BRM; [1]) [nM]	Ratio* (BRM; ratio of BRG1 IC50 to BRM IC50)	IC50 (BRG-1; [1]) [nM]	IC50 (BRM; ADP-Glo ATPase assay) [nM]	Ratio* (BRG1 IC50 (μM) divided by BRM IC50 (μM)) (BRM)	IC50 (BRG-1; ADP-Glo ATPase assay) [nM]	Ratio* (BRM; ratio BRG1 IC50 / BRM IC50)
CS(=O)(=O)c1cc(C(=O)NCc2cc3nc(-c4cn([C@H]5C[C@H](F)C5)nc4OC(F)F)ccc3cn2)ccc1C(F)F [Compound 348]	74.3	34.42	2560	–	–	–	–
C[C@H]1COCc2c(F)cc(C(=O)NCc3cc4nc(-c5cccc(C6CC6)n5)ccc4cn3)cc2S1(=O)=O [Compound 458]	19.2	34.03	654	–	–	–	–
COCC1CN(c2cccc(-c3ccc4cnc(CNC(=O)c5ccc6c(c5)S(=O)(=O)CCOC6)cc4n3)n2)C1 [Compound 221]	–	–	–	82.3	9.65	794	–
O=C(NCc1cc2nc(-c3cccc(C4CC4)n3)ccc2nn1)c1cc(F)c2c(c1)S(=O)(=O)CCOC2 [Compound 422]	10.9	28.45	310	–	–	–	–
C[C@@H]1COCCN1c1cccc(-c2ccc3cnc(CNC(=O)c4ccc5c(c4)S(=O)(=O)CCOC5)cc3n2)n1 [Compound 181]	–	–	–	40.5	9.06	367	–
COCCS(=O)(=O)c1cc(C(=O)NCc2cc3nc(-c4cncc(C5CC5)n4)ccc3cn2)ccc1Cl [Compound 238]	–	–	–	261	19.12	5000	–
O=C(NCc1cc2nc(-c3cn(C4COC4)nc3C3CC3)ccc2cn1)c1ccc2c(c1)S(=O)(=O)CCOC2 [Compound 194]	–	–	–	219	12.69	2780	–
CS(=O)(=O)c1cc(C(=O)NCc2cc3nc(-c4cncc(C5CC5)n4)ccc3cn2)ccc1F [Compound 292]	–	–	–	667	7.50	5000	–
C[C@@H]1CN(c2cccc(-c3ccc4cnc(CNC(=O)c5ccc6c(c5)S(=O)(=O)CC[C@H]6C)cc4n3)n2)C[C@H](C)O1 [Compound 490]	56.1	14.02	787	–	–	–	–
Cc1cnc2c(c1)OCCN2c1ccc2cnc(CNC(=O)c3ccc4c(c3)S(=O)(=O)CCOC4)cc2n1 [Compound 491]	5.8	10.83	62.8	–	–	–	–
CC1CCc2ccc(-c3ccc4cnc(CNC(=O)c5ccc6c(c5)S(=O)(=O)CCOC6)cc4n3)nc2O1 (stereo not drawn) [Compound 529]	173	3.88	671	–	–	–	–
C[C@@H]1CN(c2cccc(-c3ccc4cnc(CNC(=O)c5cnc6c(c5)S(=O)(=O)[C@@H](C)CCC6)cc4n3)n2)C[C@H](C)O1 [Compound 509]	6.4	4.21	26.9	–	–	–	–
O=C(NCc1cc2nc(-c3cccc4c3CC3COCCN43)ccc2cn1)c1ccc2c(c1)S(=O)(=O)CCOC2 (stereo not drawn) [Compound 421]	56.8	14.57	828	–	–	–	–
O=C(NCc1cc2nc(-c3cccc(OC(F)F)c3)ccc2cn1)c1ccc2c(c1)S(=O)(=O)CCOC2 [Compound 278]	–	–	–	73.8	25.91	1910	–
O=C(NCc1cc2nc(-c3cccc(C4CC4)n3)cnc2cn1)c1ccc2c(c1)S(=O)(=O)CCOC2 [Compound 191]	–	–	–	60.1	19.73	1180	–
COc1nc(-c2ccc3cnc(CNC(=O)c4cc(F)c5c(c4)S(=O)(=O)[C@@H](C)COC5)cc3n2)ccc1C(F)F [Compound 530]	19.5	11.19	218	–	–	–	–
Cc1ncc(C(=O)NCc2cc3nc(-c4cccc(N5C[C@@H](C)O[C@@H](C)C5)n4)ccc3cn2)cc1S(C)(=O)=O [Compound 107]	–	–	–	5.6	9.98	56	–
C[C@H]1CCOc2c(F)cc(C(=O)NCc3cc4nc(N5CCOc6cccnc65)ccc4cn3)cc2S1(=O)=O [Compound 524]	14.6	11.68	171	–	–	–	–
CS(=O)(=O)c1cncc(C(=O)NCc2cc3nc(-c4cncc(C5CC5)n4)ccc3cn2)c1 [Compound 306]	–	–	–	855	4.98	4250	–
COC[C@H]1CCc2ccc(-c3ccc4cnc(CNC(=O)c5ccc6c(c5)S(=O)(=O)CCOC6)cc4n3)nc2N1C [Compound 477]	45.2	6.50	293	–	–	–	–
C[C@@H]1CN(c2cccc(-c3ccc4cnc(CNC(=O)c5cc(F)c6c(c5)S(=O)(=O)CCCO6)cc4n3)n2)C[C@H](C)O1 [Compound 37]	–	–	–	8.6	9.89	85	–
CO[C@H]1C[C@H](c2cccc(-c3ccc4cnc(CNC(=O)c5ccc6c(c5)S(=O)(=O)CCOC6)cc4n3)n2)C1 [Compound 106]	–	–	–	76.1	8.76	667	–
Cc1cc(C(=O)NCc2cc3nc(-c4cccc(N5C[C@@H](C)O[C@@H](C)C5)n4)ccc3cn2)cc2c1COCCS2(=O)=O [Compound 354]	14	29.57	415	–	–	–	–
COCCN(C)c1cccc(-c2ccc3cnc(CNC(=O)c4ccc(Cl)c(S(C)(=O)=O)c4)cc3n2)n1 [Compound 97]	–	–	–	20.3	15.97	324	–
CCOc1cccc(-c2ccc3cnc(CNC(=O)c4ccc5c(c4)S(=O)(=O)CCOC5)cc3n2)n1 [Compound 239]	–	–	–	20.6	20.48	422	–
O=C(NCc1cc2cc(-c3cncc(C4CC4)n3)ccc2cn1)c1ccc2c(c1)S(=O)(=O)CCOC2 [Compound 263]	–	–	–	23.3	14.94	348	–
C[C@@H]1CN(c2ccc(F)c(-c3ccc4cnc(CNC(=O)c5ccc6c(c5)S(=O)(=O)CCOC6)cc4n3)n2)C[C@H](C)O1 [Compound 166]	–	–	–	16.8	12.29	206	–

The remaining lines, values ahead:

IC50 (BRM; [1]) [nM]	Ratio* (BRM; ratio of BRG1 IC50 to BRM IC50)	IC50 (BRG-1; [1]) [nM]	IC50 (BRM; ADP-Glo ATPase assay) [nM]	Ratio* (BRG1 IC50 (μM) divided by BRM IC50 (μM)) (BRM)	IC50 (BRG-1; ADP-Glo ATPase assay) [nM]	Ratio* (BRM; ratio BRG1 IC50 / BRM IC50)	Compound
–	–	–	38.1	–	477	12.52	O=C(NCc1cc2nc(N3CCOc4c3cnc(C3CC3)c4F)ccc2cn1)c1ccc2c(c1)S(=O)(=O)CCOC2 [Compound 813]
6	14.09	84.9	–	–	–	–	O=C(NCc1cc2nc(N3CCCc4ccc(OC5COC5)cc43)ccc2cn1)c1ccc2c(c1)S(=O)(=O)CCOC2 [Compound 692]
40.2	21.94	882	–	–	–	–	O=C(NCc1cc2nc(N3CCCc4ccc([C@@H]5CC5(F)F)nc43)ccc2cn1)c1ccc2c(c1)S(=O)(=O)CCOC2 [Compound 689]
–	–	–	169	–	636	3.77	O=C(NCc1ncc2ccc(N3CCOc4cc(C5CC5)cnc43)cc2n1)c1ccc2c(c1)S(=O)(=O)CCOC2 [Compound 800]
–	–	–	7.4	–	43.8	5.90	O=C(NCc1cc2cc(N3CCOc4cc(N5CCOCC5)cnc43)ccc2cn1)c1ccc2c(c1)S(=O)(=O)CCOC2 [Compound 798]
–	–	–	12.4	–	143	11.55	CN(c1cnc2c(c1)OCCN2c1ccc2cnc(CNC(=O)c3ccc4c(c3)S(=O)(=O)CCOC4)cc2n1)C1CC(F)(F)C1 [Compound 817]
–	–	–	5.3	–	45.4	8.52	CN(C)c1cnc2c(c1)OCCN2c1ccc2cnc(CNC(=O)c3ccc4c(c3)S(=O)(=O)CCOC4)cc2n1 [Compound 763]
–	–	–	105	–	651	6.21	CN(C)c1nccc2c1CCCN2c1ccc2cnc(CNC(=O)c3ccc4c(c3)S(=O)(=O)CCOC4)cc2n1 [Compound 836]
11.2	5.69	63.9	–	–	–	–	C[C@@H]1CN(c2cccc(-c3ccc4cnc(CNC(=O)c5ccc6c(c5)S(=O)(=O)CCC(F)(F)C6)cc4n3)n2)C[C@H](C)O1 [Compound 587]
–	–	–	1040	–	3810	3.68	CC1(C)CCN(c2ccc3cnc(CNC(=O)c4ccc5c(c4)S(=O)(=O)CCOC5)cc3n2)c2ncccc21 [Compound 752]
–	–	–	6.3	–	86.2	13.67	Cc1cnc2c(c1)C1(CCN2c2ccc3cnc(CNC(=O)c4ccc5c(c4)S(=O)(=O)CCOC5)cc3n2)CC1 [Compound 734]
–	–	–	29.8	–	153	5.13	C[C@@H]1CN(c2cccc(-c3cnc4cnc(CNC(=O)c5ccc6c(c5)S(=O)(=O)[C@@H](C)COC6)cc4n3)n2)C[C@H](C)O1 [Compound 710]
–	–	–	4.3	–	58.1	13.63	CO[C@H](C)COc1ccc2c(c1)N(c1ccc3cnc(CNC(=O)c4ccc5c(c4)S(=O)(=O)CCOC5)cc3n1)CCC2 [Compound 705]
33	9.53	315	–	–	–	–	Cc1ccnc2c1N(C)CCN2c1ccc2cnc(CNC(=O)c3ccc4c(c3)S(=O)(=O)CCOC4)cc2n1 [Compound 681]
7.5	16.72	125	–	–	–	–	O=C(NCc1cc2nc(N3CCOc4ccc(C5CC5)cc43)ccc2cn1)c1ccc2c(c1)S(=O)(=O)CCOC2 [Compound 606]
–	–	–	42.6	–	580	13.62	COc1cc2c(cn1)N(c1ccc3cnc(CNC(=O)c4ccc5c(c4)S(=O)(=O)CCOC5)cc3n1)CCC2 [Compound 719]
